Counter-ions that a name gives are not always drawn.
Each molecule was assayed against T1, human EDG-1 (Homo sapiens, UniProt P21453) (assay: Assessment of an agonistic action by monitoring the intracellular calcium ion). Details: human EDG-1 gene over expression CHO cells; Fura2 intracellular Ca2+ increase; Concentration of Half-100 nM S1P Ca2+ release.
T1 construct: expressed in transfected cells; host or cells: CHO (Chinese Hamster Ovary) cells, cultured under Blasticidin selection
Format: cell-based
Description: (1) Assessment of an Agonistic Action by Monitoring the Intracellular Calcium Ion
The assessment of an agonistic action for the receptor was carried out using the human EDG-1 gene over expression cells (Chinese Hamster Ovary, CHO). EDG-1 expression cells were cultured with Ham's F12 (GIBCO BRL, No. 11765-047) medium containing 10% FBS, Penicillin/Streptomycin and Blasticidin (5 μg/mL). First, in order to load Fura2-AM (Dojindo, No. 348-05831) in the cells, the cells were incubated by 5 μM Fura2-AM solution (Ham's F12 medium containing 10% FBS, 20 mM HEPES pH7.4, 2.5 mM Probenecid (Sigma, catalog No.P-8761)) at 37° C. for 60 min. Next, the cells were washed once by Hanks solution containing 20 mM HEPES pH7.4, 2.5 mM Probenecid and soaked in the Hanks solution until assay.
The plate was set on the fluorescence drug screening system (Hamamatsu photonics FDSS-2000). After measurement of the background signal for […], the solution of the assay compound was added. The test compounds were added at the final concentration range of between 0.1 nM and 10 μM as the final dimethyl sulfoxide (DMSO) concentration made to 1/1000 of the original solution. Fura2-Ca^2+ fluorescence excited at 340 nm and 380 nm was measured every 3 seconds at emission wavelength 500 nm. Intracellular Ca^2+ concentration was assessed with fluorescent ratio of excitation wavelength 340 nm and 380 nm. Agonistic activity was calculated as below, that is, the control value (A) was obtained by measuring the response of 100 nM S1P (BIOMOL:M9076) after adding DMSO to the well for the test compounds, and (A) was compared with the value (B) which is the difference of fluorescent ratio obtained by measuring response between the pre and post of test compounds added. Rate of intracellular Ca^2+ increase (%) was calculated as following equation. rate of increase (%)=(B/A)×100
Moreover, rate of increase was calculated at each concentration and EC50 (Concentration of Half—100 nM S1P Ca^2+ release) of each compound was calculated setting the maximal concentration of the compound giving the response corresponding to that of S1P at the concentration of 100 nM.

T1 sequence (P21453 whole entry): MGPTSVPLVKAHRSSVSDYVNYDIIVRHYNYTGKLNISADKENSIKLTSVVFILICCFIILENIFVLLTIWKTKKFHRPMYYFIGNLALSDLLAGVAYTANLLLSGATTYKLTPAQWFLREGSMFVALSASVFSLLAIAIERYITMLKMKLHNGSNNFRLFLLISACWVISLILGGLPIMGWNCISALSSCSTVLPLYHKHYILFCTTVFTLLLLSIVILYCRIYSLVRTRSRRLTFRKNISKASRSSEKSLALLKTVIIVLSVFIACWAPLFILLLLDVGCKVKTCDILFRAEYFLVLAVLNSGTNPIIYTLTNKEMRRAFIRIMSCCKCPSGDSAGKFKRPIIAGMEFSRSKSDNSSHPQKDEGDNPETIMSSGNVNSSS

EC50 [nM]	Structure (SMILES)
30	O=C(O)CCNCCc1ccc(OCCCCCc2ccccc2)cc1 [Example 32, 3-[2-(4-(5-phenylpentyloxy)phenyl)ethylamino]propanoic acid hydrochloride]
1.4	O=C(CCc1ccc(OCCCCCc2ccccc2)cc1)Nc1ccc(C(=O)O)c(C(=O)O)c1 [Example 2(3), 2-carboxy-5-[3-(4-(5-phenylpentyloxy)phenyl)propanoylamino]benzoic acid]
4.5	O=C(O)c1cncc(C(=O)NCCc2ccc(OCCCCCc3ccccc3)cc2)c1 [Example 16(3), 5-[2-(4-(5-phenylpentyloxy)phenyl)ethylaminocarbonyl]pyridine-3-carboxylic acid]
1.5	O=C(NCCc1ccc(OCCCCCc2ccccc2)cc1)c1ccc(C(=O)O)c(C(=O)O)c1 [Example 19, 2-carboxy-5-[2-(4-(5-phenylpentyloxy)phenyl)ethylaminocarbonyl]benzoic acid]
7.3	O=C(CCc1ccc(OCCCCCc2ccccc2)cc1)Nc1cc(Cl)c(Cl)c(C(=O)O)c1 [Example 9(6), 2,3-dichloro-5-[3-(4-(5-phenylpentyloxy)phenyl)propanoylamino]benzoic acid]
9	O=C(CCc1ccc(OCCCCCc2ccccc2)cc1)Nc1ccc(Cl)c(C(=O)O)c1 [Example 2(1), 2-chloro-5-[3-(4-(5-phenylpentyloxy)phenyl)propanoylamino]benzoic acid]
8.3	O=C(NCCc1ccc(OCCCCCc2ccccc2)cc1)c1ccc(Cl)c(C(=O)O)c1 [Example 16, 2-chloro-5-[2-(4-(5-phenylpentyloxy)phenyl)ethylaminocarbonyl]benzoic acid]
25	O=C(O)CNC(=O)CCc1ccc(CCCCCCc2ccccc2)cc1 [Example 28, 2-[3-(4-(6-phenylhexyl)phenyl)propanoylamino]acetic acid]
